Results published in patent US5621133A (priority 1995, dated 1997).
Where a name gives a salt, the structure may show the parent alone.

Columns and labels:
dopamine D-2 receptor = dopamine D-2 receptor (Rattus norvegicus, UniProt P61169); assay: biochemical; assay type: binding; details: rat caudate, [125I]-p-aminophenylethyl spiroperidol; read-out: D-2 Ki
Method: Homogenized rat caudate was the source of the D-2 receptors. […] The molar affinity of the compound for the receptor binding site was calculated by the same method used for the D-1 receptor assay, assuming a competitive interaction between the compound and the radiolabeled ligand.

dopamine D-1 receptor [1] = details: for Intrinsic Activity (adenylate cyclase assay): dopamine = 100, goldfish retina or rat striatum; for EC50: read-out: EC50 (agonist activity in adenylate cyclase assay), tissue from goldfish retina or rat striatum
Method: In order to determine agonist activity, cell-free tissue homogenates are incubated in an ionic buffer solution containing ATP and the compound being evaluated. The tissue was obtained from either goldfish retina or rat striatum.

dopamine D-1 receptor [2] = biological target: dopamine D-1 receptor (Rattus norvegicus, UniProt P18901); assay: biochemical; details: D-1 Ki, rat caudate, [125I]SCH-23982
dopamine D-1 receptor (Rattus norvegicus, UniProt P18901), sequence (P18901 whole entry): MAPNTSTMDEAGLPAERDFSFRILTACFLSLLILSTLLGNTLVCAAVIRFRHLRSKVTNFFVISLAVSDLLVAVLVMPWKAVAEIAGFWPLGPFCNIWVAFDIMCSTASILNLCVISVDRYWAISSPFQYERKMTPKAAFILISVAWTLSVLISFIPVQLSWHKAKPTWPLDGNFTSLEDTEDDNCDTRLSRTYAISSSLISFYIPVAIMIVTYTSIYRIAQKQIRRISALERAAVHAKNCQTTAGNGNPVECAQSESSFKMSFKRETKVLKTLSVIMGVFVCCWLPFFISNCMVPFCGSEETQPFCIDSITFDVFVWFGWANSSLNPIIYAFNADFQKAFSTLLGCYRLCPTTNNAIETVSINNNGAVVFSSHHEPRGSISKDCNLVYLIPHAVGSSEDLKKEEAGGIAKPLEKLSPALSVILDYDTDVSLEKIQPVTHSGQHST
From the text: The compounds compete with the radiolabeled ligand for occupancy of the receptors and the molar potency of each compound was quantified.
The Ki values are inversely proportional to the affinity of the compound for the receptor.

dopamine D-2 receptor, sequence (P61169 whole entry): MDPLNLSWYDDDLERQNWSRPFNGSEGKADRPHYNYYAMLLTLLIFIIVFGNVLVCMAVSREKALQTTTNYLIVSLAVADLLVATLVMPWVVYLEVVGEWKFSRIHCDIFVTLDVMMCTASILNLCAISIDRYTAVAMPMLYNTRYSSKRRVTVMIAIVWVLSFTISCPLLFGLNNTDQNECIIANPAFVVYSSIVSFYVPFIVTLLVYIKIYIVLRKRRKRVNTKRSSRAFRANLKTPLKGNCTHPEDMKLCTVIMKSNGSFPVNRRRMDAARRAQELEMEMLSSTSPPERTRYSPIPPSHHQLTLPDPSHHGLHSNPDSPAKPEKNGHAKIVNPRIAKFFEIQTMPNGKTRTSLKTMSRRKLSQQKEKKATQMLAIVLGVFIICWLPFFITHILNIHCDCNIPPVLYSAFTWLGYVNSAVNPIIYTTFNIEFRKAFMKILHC

NC[C@H]1O[C@@H](CNC(=O)c2cccnc2)Cc2c1ccc(O)c2O (relative stereo) [Example 170]
Ki (dopamine D-2 receptor): 140 nM | Intrinsic Activity (adenylate cyclase assay) (dopamine D-1 receptor [1]): 151 | EC50 (dopamine D-1 receptor [1]): 130 nM | Ki (dopamine D-1 receptor [2]): 570 nM

CN1CCC2=C(C1)c1ccc(O)c(O)c1CC21CCCCC1 [Example 212]
Ki (dopamine D-2 receptor): 700 nM | Intrinsic Activity (adenylate cyclase assay) (dopamine D-1 receptor [1]): 43 | EC50 (dopamine D-1 receptor [1]): 480 nM | Ki (dopamine D-1 receptor [2]): 630 nM

NCC1CC2(CCCCCCC2)Cc2c1ccc(O)c2O (stereo not drawn) [Example 197]
Ki (dopamine D-2 receptor): > 5000 nM | Intrinsic Activity (adenylate cyclase assay) (dopamine D-1 receptor [1]): 56 | EC50 (dopamine D-1 receptor [1]): 180 nM | Ki (dopamine D-1 receptor [2]): 880 nM

CC(C)C(=O)NC[C@H]1Cc2c(ccc(O)c2O)[C@@H](CN)O1 (relative stereo) [Example 171]
Ki (dopamine D-2 receptor): 810 nM | Intrinsic Activity (adenylate cyclase assay) (dopamine D-1 receptor [1]): 124 | EC50 (dopamine D-1 receptor [1]): 180 nM | Ki (dopamine D-1 receptor [2]): 530 nM

CCN1CCC2=C(C1)c1ccc(O)c(O)c1CC21CCCCCC1 [Example 251]
Ki (dopamine D-2 receptor): 1200 nM | Intrinsic Activity (adenylate cyclase assay) (dopamine D-1 receptor [1]): 41 | EC50 (dopamine D-1 receptor [1]): 470 nM | Ki (dopamine D-1 receptor [2]): 530 nM

C=CCNC[C@H]1O[C@@H](CCCC)Cc2c1ccc(O)c2O (relative stereo) [Example 125]
Ki (dopamine D-2 receptor): > 10000 nM | Intrinsic Activity (adenylate cyclase assay) (dopamine D-1 receptor [1]): 63 | EC50 (dopamine D-1 receptor [1]): 1000 nM | Ki (dopamine D-1 receptor [2]): 2700 nM

CCCCCC[C@@H]1Cc2c(ccc(O)c2O)[C@H](CN)O1 (relative stereo) [Example 68]
Ki (dopamine D-2 receptor): 5500 nM | Intrinsic Activity (adenylate cyclase assay) (dopamine D-1 receptor [1]): 90 | EC50 (dopamine D-1 receptor [1]): 14 nM | Ki (dopamine D-1 receptor [2]): 100 nM

NC[C@H]1O[C@@H](CNC(=O)c2ccccc2)Cc2c1ccc(O)c2O (relative stereo) [Example 164]
Ki (dopamine D-2 receptor): 250 nM | Intrinsic Activity (adenylate cyclase assay) (dopamine D-1 receptor [1]): 96 | EC50 (dopamine D-1 receptor [1]): 200 nM | Ki (dopamine D-1 receptor [2]): 3600 nM

NCC1=CC(c2cccc(O)c2)Cc2c1ccc(O)c2O (stereo not drawn) [Example 38]
Ki (dopamine D-2 receptor): 30000 nM | Intrinsic Activity (adenylate cyclase assay) (dopamine D-1 receptor [1]): 91 | EC50 (dopamine D-1 receptor [1]): 33 nM | Ki (dopamine D-1 receptor [2]): 120 nM

CC(C)(C)c1ccc(OC[C@H]2Cc3c(ccc(O)c3O)[C@@H](CN)O2)cc1 (relative stereo) [Example 57]
Ki (dopamine D-2 receptor): 730 nM | Intrinsic Activity (adenylate cyclase assay) (dopamine D-1 receptor [1]): 56 | EC50 (dopamine D-1 receptor [1]): 30 nM | Ki (dopamine D-1 receptor [2]): 1100 nM

CCOC(=O)CC(=O)NC[C@@H]1Cc2c(ccc(O)c2O)[C@H](CN)O1 (relative stereo) [Example 92]
Ki (dopamine D-2 receptor): 5400 nM | Intrinsic Activity (adenylate cyclase assay) (dopamine D-1 receptor [1]): 69 | EC50 (dopamine D-1 receptor [1]): 600 nM | Ki (dopamine D-1 receptor [2]): 1500 nM

Oc1ccc2c(c1O)C[C@@H](c1ccccc1)O[C@H]2[C@H]1CCCN1 [Example 123]
Ki (dopamine D-2 receptor): > 10000 nM | Intrinsic Activity (adenylate cyclase assay) (dopamine D-1 receptor [1]): 61 | EC50 (dopamine D-1 receptor [1]): 770 nM | Ki (dopamine D-1 receptor [2]): 8200 nM

CNC[C@H]1O[C@@H](CC2CCCCC2)Cc2c1ccc(O)c2O (relative stereo) [Example 140]
Ki (dopamine D-2 receptor): 1500 nM | Intrinsic Activity (adenylate cyclase assay) (dopamine D-1 receptor [1]): 113 | EC50 (dopamine D-1 receptor [1]): 8.4 nM | Ki (dopamine D-1 receptor [2]): 60 nM

CCC(=O)Oc1ccc2c(c1OC(=O)CC)CC(c1ccccc1)C=C2CN (stereo not drawn) [Example 20]
Ki (dopamine D-2 receptor): > 10000 nM | Intrinsic Activity (adenylate cyclase assay) (dopamine D-1 receptor [1]): 80 | EC50 (dopamine D-1 receptor [1]): 500 nM | Ki (dopamine D-1 receptor [2]): 1900 nM

NC[C@@H]1S[C@H](c2ccccc2)Cc2c1ccc(O)c2O (relative stereo) [Example 186, [1,3-cis]1-Aminomethyl-3-phenyl-3,4-dihydro-5,6-dihydroxy-1H-2-benzothiopyran Hydrochloride]
Ki (dopamine D-2 receptor): 34000 nM | Intrinsic Activity (adenylate cyclase assay) (dopamine D-1 receptor [1]): 95 | EC50 (dopamine D-1 receptor [1]): 1300 nM | Ki (dopamine D-1 receptor [2]): 1900 nM

NCC1=CC2(CCCCCCCC2)Cc2c1ccc(O)c2O [Example 232]
Ki (dopamine D-2 receptor): > 10000 nM | Intrinsic Activity (adenylate cyclase assay) (dopamine D-1 receptor [1]): 49 | EC50 (dopamine D-1 receptor [1]): 1700 nM | Ki (dopamine D-1 receptor [2]): 3800 nM

NC[C@@H]1O[C@H](C2CCCCC2)Cc2c1cc(Br)c(O)c2O (relative stereo) [Example 81]
Ki (dopamine D-2 receptor): 4600 nM | Intrinsic Activity (adenylate cyclase assay) (dopamine D-1 receptor [1]): 61 | EC50 (dopamine D-1 receptor [1]): 67 nM | Ki (dopamine D-1 receptor [2]): 210 nM

CNCC1=CC(c2ccccc2)Cc2c1ccc(O)c2O (stereo not drawn) [Example 149, 5,6-Dihydroxy-1-(N-methyl)aminomethyl-3-phenyl-3,4,-dihydronaphthalene]
Ki (dopamine D-2 receptor): 19000 nM | Intrinsic Activity (adenylate cyclase assay) (dopamine D-1 receptor [1]): 78 | EC50 (dopamine D-1 receptor [1]): 36 nM | Ki (dopamine D-1 receptor [2]): 460 nM
